This note sets out measurements from patent US9657009B2, “Heteroaryl substituted pyridyl compounds useful as kinase modulators” (BRISTOL-MYERS SQUIBB COMPANY, priority 2012, dated 2017).

The test system of test [1] is TLR2 induced IL-6 in peripheral blood mononuclear cells (PBMCs). In words: PBMC TLR2 Induced IL-6 Assay. The format is cell-based. Particulars: human PBMCs, lipoteichoic acid 10 μg/ml, 5 hours, IL-6 by ELISA. On the procedure: PBMC TLR2 Induced IL-6 Assay Peripheral blood mononuclear cells (PBMCs) were isolated from human blood containing the anti-coagulant EDTA (2.5 mM) by centrifugation over a FICOLL® gradient. […] At the end of the culture, plates were centrifuged at 1800 rpm for 10 minutes to pellet the cells. Supernatants were harvested and analyzed for IL-6 levels by ELISA (BD Biosciences, San Jose, Calif.).

A further test addresses IRAK4 (Homo sapiens (Human), UniProt Q9NWZ3). Kind of test: IRAK4 Inhibition Assay. The format is biochemical. Particulars: ATP 500 μM; IRAK4 0.6 nM; 60 min at room temperature; read-out: IRAK4 IC50. On the procedure: IRAK4 Inhibition Assay The assays were performed in U-bottom 384-well plates. […] The reaction was initiated by the combination of IRAK4 with substrates and test compounds. The reaction mixture was incubated at room temperature for 60 min. and terminated by adding 45 μL of 35 mM EDTA to each sample.

Chain of IRAK4 (Q9NWZ3 whole entry, species assumed): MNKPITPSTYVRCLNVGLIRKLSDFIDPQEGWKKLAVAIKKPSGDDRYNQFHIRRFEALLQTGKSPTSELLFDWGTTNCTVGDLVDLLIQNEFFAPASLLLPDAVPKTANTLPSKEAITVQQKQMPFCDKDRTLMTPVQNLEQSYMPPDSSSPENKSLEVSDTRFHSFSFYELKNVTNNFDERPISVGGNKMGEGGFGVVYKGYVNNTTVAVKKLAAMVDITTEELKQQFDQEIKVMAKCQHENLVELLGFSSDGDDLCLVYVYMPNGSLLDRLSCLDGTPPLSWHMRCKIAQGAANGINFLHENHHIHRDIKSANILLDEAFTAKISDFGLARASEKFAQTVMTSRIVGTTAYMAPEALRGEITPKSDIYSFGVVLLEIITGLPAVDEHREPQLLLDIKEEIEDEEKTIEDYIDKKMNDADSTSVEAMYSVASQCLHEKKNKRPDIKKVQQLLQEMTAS

In the case of `CC(C)(O)[C@H](F)CNC(=O)c1cnc(Nc2ncc(C#N)cn2)cc1N[C@H]1CCC[C@@H]1F` [Example 54], the IC50 in test [1] (values without asterisk, read-out: Cell IC50) was found to be 0.126 µM; at IRAK4 it was 0.0059 µM.

On to `CC(C)(O)[C@H](F)CNC(=O)c1cnc(Nc2ncc(C#N)cc2Cl)cc1NC1CCCC1F` (stereo partly shown) [Example 73], for which the EC50 in test [1] (values marked * are EC50, read-out: Cell EC50 (*EC50)) is 0.132 µM. Besides, the IC50 at IRAK4 was found to be 0.0015 µM.
